# Like-named read-outs stand apart in the source and are kept apart here.
# How the values were obtained:
# PC-3MLN4 cells = experiment: Normalized mitotic index (histone H3 phospho-Serine-28), PC-3MLN4; type: cell-based; settings: Homo sapiens, at 1 μM; normalized against vehicle-treated cells; read-out: Normalized mitotic index PC-3MLN4
# From the text: (§1) The mitotic index for each agent was normalized against those obtained from vehicle-treated cells, and compared with the activity of paclitaxel, a known inducer of mitotic arrest.
# PC-3M cells = experiment: Normalized mitotic index (histone H3 phospho-Serine-28), PC-3M; type: cell-based; settings: Homo sapiens, at 1 μM, normalized against vehicle-treated cells, read-out: Normalized mitotic index PC-3M
# From the text: as §1
# AT6.1 cells = experiment: Normalized mitotic index (histone H3 phospho-Serine-28), AT6.1; type: cell-based; settings: Rattus norvegicus, at 1 μM; normalized against vehicle-treated cells; read-out: Normalized mitotic index AT6.1
# From the text: as §1
# PC3MLN4 cells = experiment: Annexin V/7-AAD apoptosis by flow cytometry, PC3MLN4
# Protocol: (§2) Annexin V/7-amino-actinomycin D labeling was done according to the manufacturer's instructions (BD Pharmingen, 559763) and samples were analyzed by flow cytometry. Briefly, the cells were treated for 72 hours with either vehicle or 1 μM benzimidazole drugs, solubilized in the combination carrier. Cells were trypsinized and washed with PBS before resuspending in assay binding buffer. Annexin V and 7-amino-actinomycin labeling was performed at room temperature for 15 minutes before analysis by flow cytometry (BD FACScan). Cells positively stained for annexin V in the lower right quadrant and upper right quadrant indicate early and late apoptosis, respectively.
# All benzimidazole drugs were solubilized in the combination carrier. After 72 hours, the cells were analyzed by annexin V/7-AAD staining. Cells positively stained for annexin V in the lower right quadrant and upper right quadrant indicate early and late apoptosis, respectively.
# [1] = tested on: PC3M human prostate cancer cells; experiment: Cyquant cell viability assay, PC3M; type: cell-based; settings: Homo sapiens, PC-3M
# Protocol: (§3) PC3M and PC3MLN4 cells were treated with vehicle, fenbendazole in DMSO, and fenbendazole in DMSO/NMP/TWEEN®-80/CrEL in varying doses for 72 hours. Cell viability assays using Cyquant reagent (Invitrogen, C7026) were performed as described in the literature. […] cells were seeded in 96 well plates overnight, before treated with either vehicle or benzimidazole solubilized in DMSO alone or in DMSO (12.5%)/NMP ([…])/TWEEN®-80 (25%)/Cr-EL (25%) for 72 hours. Cells were harvested by removing the media, washing once with phosphate buffered saline (PBS) and freezing at −80° C. for overnight. After thawing to room temperature, Cyquant reagent were prepared and added to the wells and the fluorescence intensity were measured with a spectrometer at 485 nm. Percent control was calculated by dividing the reading from drug-treated cells with the reading from vehicle-treated cells.
# (§4) ED50 values were calculated from dose-effect analysis performed with Compusyn using data from the Cyquant cell viability assays.
# (§5) ED50 values were calculated from dose-effect analysis performed with Compusyn using data from the Cyquant cell viability assays. All benzimidazoles drugs were solubilized in the combination carrier.
# [2] = tested on: PC3MLN4 human prostate cancer cells; experiment: Cyquant cell viability assay, PC3MLN4
# Protocol: as §3, §4, §5
# [3] = tested on: AT6.1 Dunning rat prostate carcinoma; experiment: Survival in intravenous AT6.1 Dunning rat prostate carcinoma lung metastasis model; type: in vivo, nu/nu mice; settings: for average survival time: FIG. 5 (carrier only 20.4 days); for percent increase in life span (ILS %): 100 mg/kg i.p. three times a week, over vehicle-treated mice
# Protocol: Many anti-tumor drugs are tested only for their ability to prevent primary tumor growth or to prevent the dissemination of metastatic cells. To accomplish this, the drug is usually administered shortly after the primary tumor is established. […] The benzimidazoles described herein were evaluated in an experimental metastases model in the lungs of nude mice following tail-vein injection of Dunning rat AT6.1 prostate carcinoma. […] In order to achieve greater bioavailability, we first solubilized benzimidazoles in DNTC formulation and then diluted with saline prior to injection.
# Inbred male nu/nu mice age 6-8 weeks were obtained from Massachusetts General Hospital (Boston, Mass.). The mice were virus antibody free, age and weight matched for experimental use and fed with a balanced rodent diet ad libitum. AT6.1 Dunning rat prostate cells were maintained as described above. 1×10^4 log-phase cells were injected via tail vein in 0.1 mL Hanks solution. Vehicle or drug treatment was started on day 5 post inoculation and given three times a week (Monday, Wednesday and Friday) via intraperitoneal injection in 0.5 mL volume. Benzimidazole drugs were prepared in the combination carrier [DMSO (12.5%), NMP (37.5%), TWEEN®-80 (25%) and CrEL (25%)] and diluted in saline. Vehicle control was prepared by diluting the combination carrier with saline.
# During the course of treatment, the mice were monitored for toxicity by measuring body weight. […] Animals were euthanized with CO2 and tissues were collected for further analysis. The animals and experiments used in these studies were approved by the institutional animal care committee according to Children's Hospital Boston ARCH guidelines.
# To distinguish differences in survival between these groups, the percent increase in life span (ILS %), defined as the percent increase in the mean time to death of drug-treated animals over the corresponding time to death for vehicle-treated mice, was calculated.
# [4] = tested on: paclitaxel-resistant PC3-TR prostate cancer cells; experiment: Cyquant cell viability assay, PC3-TR; type: cell-based, human; settings: Homo sapiens; 72 hours; paclitaxel-resistant; read-out: ED50 PC3-TR
# Protocol: (§6) The cytotoxic effects of paclitaxel, fenbendazole, and albendazole were compared in paclitaxel-resistant PC3-TR and DU145-TR prostate cancer cells with their paclitaxel-sensitive counterparts, PC3 and DU145 cells. Cells were treated for 72 hours with vehicle, paclitaxel, fenbendazole or albendazole in various doses. Cell viability was measured using Cyquant assay, and percent control was calculated by dividing the fluorescent reading from drug-treated cells with those from vehicle-treated cells, indicating percentage of cell survival.
# [5] = tested on: PC3 human prostate cancer cells; experiment: Cyquant cell viability assay, PC3; type: cell-based; settings: 72 hours, read-out: ED50 PC3
# Protocol: as §6
# [6] = tested on: multidrug resistant MES-SA/Dx5 human uterine sarcoma cells; experiment: Cell viability, MES-SA/Dx5; type: cell-based; settings: read-out: ED50 MES-SA/Dx5
# From the text: (§7) Benzimidazoles retain their anti-tumor activity in these paclitaxel-resistant cells, with higher potency when compared to the parental cells (see Table 4). Cells resistant to microtubule-stabilizing drugs such as the taxanes are more susceptible to microtubule-disrupting agents. To confirm this, human uterine sarcoma MES-SA/Dx5 cells, which are cross-resistant to various chemotherapeutic agents, including the microtubule-disrupting agents vincristine and colchicine, were used.
# [7] = tested on: AT6.1 Dunning rat prostate carcinoma; experiment: Tumor burden by blood Gaussia luciferase assay in AT6.1 model; type: in vivo, nu/nu mice; settings: 100 mg/kg
# From the text: Similar to the survival model, treatment was not begun until day 5 when micrometastases were confirmed growing in the lung. For this approach, the AT6.1 cells were engineered to express secreted Gaussia luciferase enzyme. Using measurement of luciferase activity from the peripheral blood as an indicator of overall tumor burden, a significant reduction of tumor burden in the lungs of benzimidazole-treated animals when compared to vehicle-treated mice was observed. After 22 days, the mice were sacrificed and the lungs examined for viable tumor colonies.
# Blood Gaussia luciferase assay was performed as described in the literature. Briefly, 10-20 μL peripheral blood was collected from the animals once a week via the retro-orbital vein. Secreted GAR luciferase activity was measured using a luminometer by adding 100 μL of 100 μM coelentrazine (Prolume, Nanolight, #303) to 5 μL blood and 2 μL of 20 mM EDTA. Relative luciferase reading from the blood collected represents the tumor burden in each animal. The reading was performed with blood collected at day 19 post inoculation when all mice were still alive.
# [8] = tested on: MES-SA human uterine sarcoma cells; experiment: Cell viability, MES-SA; type: cell-based; settings: read-out: ED50 MES-SA
# From the text: as §7
# DU145-TR cells = experiment: % apoptotic cells, DU145-TR; type: cell-based, human; settings: 1 μM
# PC3M cells = experiment: Annexin V/7-AAD apoptosis by flow cytometry, PC3M; type: cell-based, human; settings: 1 μM, 72 hours, combination carrier
# Protocol: All benzimidazole drugs were solubilized in the combination carrier. After 72 hours, the cells were analyzed by annexin V/7-AAD staining.
# as §2
# DU145 cells = experiment: % apoptotic cells, DU145; type: cell-based, human; settings: 1 μM
# [9] = Combination with paclitaxel, Cyquant cell growth inhibition, CompuSyn median-dose effect analysis; type: cell-based; settings: Fa 0.50; alone or in combination; read-out: Dose MBZ
# Protocol: Cell growth inhibition assays were performed using Cyquant reagent as described above. Drug interactions were quantitated by median-dose effect analysis and combination index values as well as dose reduction index were derived using CompuSyn software (ComboSyn, Inc.), as described previously in the literature. CI values of <1, =1, and >1 indicate synergism, additivity and antagonism between the drugs, respectively.
# All benzimidazole drugs were prepared using the combination carrier and diluted with culture medium prior to treatment.
# PC3-TR cells = experiment: % apoptotic cells, PC3-TR; type: cell-based, human; settings: 1 μM
# [10] = tested on: DU145 human prostate cancer cells; experiment: Cyquant cell viability assay, DU145; type: cell-based; settings: DU-145, 72 hours, read-out: ED50 DU145
# Protocol: as §6
# [11] = tested on: paclitaxel-resistant DU145-TR prostate cancer cells; experiment: Cyquant cell viability assay, DU145-TR; type: cell-based, human; settings: Homo sapiens; 72 hours; paclitaxel-resistant; read-out: ED50 DU145-TR
# Protocol: as §6
# PC3 cells = experiment: % apoptotic cells, PC3; type: cell-based, human; settings: 1 μM
# tubulin = experiment: In vitro tubulin polymerization assay; type: biochemical
# From the text: Using an in vitro tubulin polymerization assay, it was confirmed that benzimidazoles disrupt microtubule polymerization.
# [12] = combination carrier, Table 2, read-out: ED50 PC3M
# [13] = 50 mg/kg i.p. three times a week from day 5
compound,measurement,setting,value
"COC(=O)Nc1nc2ccccc2[nH]1 [Carbendazim, carbendazim]",fold induction at 1 µM,PC-3MLN4 cells,1
same,fold induction at 1 µM,PC-3M cells,0.91
same,fold induction at 1 µM,AT6.1 cells,1.08
"COC(=O)NC(=S)Nc1ccccc1NC(=S)NC(=O)OC [Thiophanate methyl, thiophanate-methyl]",fold induction at 1 µM,PC-3MLN4 cells,0.95
same,fold induction at 1 µM,PC-3M cells,0.95
same,fold induction at 1 µM,AT6.1 cells,0.96
"COC(=O)Nc1nc2cc(C(=O)c3ccc(F)cc3)ccc2[nH]1 [Flubendazole, flubendazole]",fold induction at 1 µM,PC-3M cells,> 1
same,cytotoxic activity via apoptosis in highly metastatic prostate cancer cells,PC3MLN4 cells,induction of apoptosis
same,EC50,[1]; [12],1430 nM
same,fold induction at 1 µM,AT6.1 cells,> 1
same,cytotoxicity in highly metastatic cells relative to PC-3M,[2],greater cytotoxicity
"c1ccc2[nH]c(-c3cscn3)nc2c1 [Thiabendazole, thiabendazole]",fold induction at 1 µM,PC-3MLN4 cells,0.99
same,fold induction at 1 µM,PC-3M cells,0.98
same,fold induction at 1 µM,AT6.1 cells,0.96
"CCCOc1ccc2nc(NC(=O)OC)[nH]c2c1 [Oxibendazole, oxibendazole]",average survival time,[3]; [13],27.4 days
same,fold induction at 1 µM,PC-3MLN4 cells,1.8 to 2
same,fold induction at 1 µM,PC-3M cells,> 1
same,cytotoxic activity via apoptosis in highly metastatic prostate cancer cells,PC3MLN4 cells,induction of apoptosis
same,EC50,"[1]; solubilized in DMSO alone, 72 hours, read-out: ED50 PC3M DMSO",8820 nM
same,fold induction at 1 µM,AT6.1 cells,> 1
same,cytotoxicity in highly metastatic cells relative to PC-3M,[2],greater cytotoxicity
same,EC50,"[2]; Homo sapiens, 72 h, read-out: ED50 PC3MLN4 DMSO",4.12 µM
"COC(=O)Nc1nc2ccc(C(=O)c3ccccc3)cc2[nH]1 [Mebendazole, mebendazole]",average survival time,[3]; [13],29 days
same,average survival time,[3]; 100 mg/kg i.p. three times a week from day 5,34.6 days
same,percent increase in life span (ILS %),[3],48.9%
same,survival,"[3]; 100 mg/kg, FIG. 6 (control 24.25 days)",36.13 days
same,EC50,[4],750 nM
same,EC50,[5],2850 nM
same,EC50,[6],790 nM
same,reduction in tumor burden,"[7]; blood collected at day 19, FIG. 8",most pronounced
same,tumor burden compared to the control,"[7]; until day 22, FIG. 9",significant reduction in tumor burden
same,EC50,[8],1270 nM
same,% Apoptotic cells (72 hours) DU145-TR,DU145-TR cells,36.7%
same,apoptotic cells in PC3MLN4,"PC3MLN4 cells; 1 μM, 72 hours, combination carrier",17.6%
same,apoptotic cells in PC3M,PC3M cells,16.8%
same,EC50,[1]; [12],1210 nM
same,% Apoptotic cells (72 hours) DU145,DU145 cells,16.4%
same,EC50,[9],17.5 µM
same,% Apoptotic cells (72 hours) PC3-TR,PC3-TR cells,21.5%
same,EC50,[10],5.9 µM
same,EC50,[11],2970 nM
same,% Apoptotic cells (72 hours) PC3,PC3 cells,11.9%
"CCCCNC(=O)n1c(NC(=O)OC)nc2ccccc21 [Benomyl, benomyl]",percent increase in life span (ILS %),[3],7.5%
same,fold induction at 1 µM,PC-3MLN4 cells,0.99
same,fold induction at 1 µM,PC-3M cells,0.91
same,tubulin disrupting effect,tubulin,strongest tubulin disrupting effect
same,fold induction at 1 µM,AT6.1 cells,1.08

# From patent publication US20120064008A1, “COMPOSITIONS FOR THE TREATMENT OF METASTATIC CANCER AND METHODS OF USE THEREOF” (priority 2009, published 2012)
